Assays:
[1] = test system: Min6 cells; assay: Glucose Dependent Insulin Secretion (GDIS) assay, insulinoma cell line Min6; format: cell-based, mouse; conditions: 1 μM plus 25 mM glucose compared to 25 mM glucose alone; 2 h
Experimental: Because activation of GPR40 is known to result in insulin secretion which is dependent on high glucose concentrations, two separate assay systems (insulinoma cell line and primary rodent islets) are developed to further characterize compounds that are known to increase intracellular calcium in the GPR40 primary assay discussed above.
GDIS assays are performed using the mouse insulinoma cell line Min6. Min6 cells are maintained in Dulbecco's Modified Eagle's Medium (DMEM) containing non-essential amino acids, 10% FBS, […] 2-mercaptoethanol and 1% penicillin and streptomycin at 37° C. plus 5% CO2. On the day of the experiment, the cells are washed twice with 200 μl of pre-warmed Krebs-ringer buffer without glucose. Addition of 200 μL of pre-warmed Krebs-ringer buffer containing 2.5 mM glucose is used to starve the cells followed by the addition of compounds in the presence of a high concentration of glucose (25 mM). The plate is incubated at 37° C. for 2 hours. At the end of the 2 h incubation, the supernatant is gently transferred into a Millipore filter plate and spun at 200 g (gravitational force) for 3 minutes. Insulin is assayed using a Mercodia Insulin estimation kit.

[2] = target: T1, human GPR40 (Homo sapiens, UniProt O14842); assay: Calcium Flux Primary Assay; format: cell-based
T1 construct: expressed in transfected cells; host or cells: HEK293
Experimental: HEK293 cells over expressing the human GPR40 cDNA maintained in Dulbecco's modified Eagle's medium with F12 medium in 3:1 ratio supplemented with 10% FBS and 800 μg/ml geneticin at 37° C. and 5% CO2 are employed for the study. Agonist assays are performed using a Calcium 4 Dye assay kit (Molecular Devices) in the presence (0.1%) or absence of fatty acid free BSA in the assay buffer (1×HBSS (Hank's Balanced Salt Solution) & 20 mM HEPES (4-(2-hydroxyethyl)-1-piperazineethanesulfonic acid). Receptor activation is measured as an increase in intracellular calcium using the Fluorometric Imaging Plate Reader (FLIPR). Maximum change in fluorescence over the base line is used to determine agonist response. EC50 (effective concentration at half the maximal response) value of the compound is calculated using Excel Fit software (version 4; IDBS) by plotting concentration vs relative fluorescence units (RFUs).

[3] = target: T2, PPARα (Homo sapiens, UniProt Q07869); assay: PPARα binding assay (SPA); conditions: concentrations up to 10 μM
T2 construct: made in house; host or cells: HEK293 (cell lysates)
T2 sequence (Q07869 1-468): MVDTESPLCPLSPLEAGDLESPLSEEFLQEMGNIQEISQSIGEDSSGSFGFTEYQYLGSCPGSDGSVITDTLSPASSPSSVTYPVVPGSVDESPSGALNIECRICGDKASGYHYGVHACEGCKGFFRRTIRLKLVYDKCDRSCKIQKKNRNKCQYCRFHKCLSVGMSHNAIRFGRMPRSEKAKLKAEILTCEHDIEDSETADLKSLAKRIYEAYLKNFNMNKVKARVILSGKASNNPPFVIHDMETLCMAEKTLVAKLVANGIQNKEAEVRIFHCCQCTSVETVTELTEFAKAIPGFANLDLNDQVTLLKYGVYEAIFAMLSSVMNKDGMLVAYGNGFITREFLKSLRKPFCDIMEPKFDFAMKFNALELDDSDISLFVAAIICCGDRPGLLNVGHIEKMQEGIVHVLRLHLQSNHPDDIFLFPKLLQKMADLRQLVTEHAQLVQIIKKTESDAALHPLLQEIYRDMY
T2 sequence (P19793 1-462 partner): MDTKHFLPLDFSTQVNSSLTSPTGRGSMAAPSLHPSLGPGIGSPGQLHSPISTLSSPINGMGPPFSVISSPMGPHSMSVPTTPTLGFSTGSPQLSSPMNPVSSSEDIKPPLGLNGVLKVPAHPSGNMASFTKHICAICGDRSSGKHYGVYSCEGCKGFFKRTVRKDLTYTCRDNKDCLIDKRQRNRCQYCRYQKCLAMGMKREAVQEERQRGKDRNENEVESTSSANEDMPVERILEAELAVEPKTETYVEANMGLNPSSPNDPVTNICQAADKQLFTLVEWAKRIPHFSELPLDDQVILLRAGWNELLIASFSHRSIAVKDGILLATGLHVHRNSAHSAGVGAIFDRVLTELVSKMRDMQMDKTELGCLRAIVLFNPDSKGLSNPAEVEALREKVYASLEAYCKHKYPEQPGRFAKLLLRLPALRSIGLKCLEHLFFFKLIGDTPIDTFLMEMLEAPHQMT
Experimental: Because GPR40 is known to be activated by ligands to PPARγ exemplified compounds are examined in PPARα, PPARδ, and PPARγ binding and functional assays to determine the selectivity of exemplified compounds for GPR40. Compounds exemplified herein are tested essentially as described below for PPAR binding and generally have binding values greater than 1000 nM with 10 μM concentrations of test compound and are thus considered negative for PPAR activity.
Binding affinities of compounds for the PPAR α, δ, and γ receptors are assessed using Scintillation Proximity Assay (SPA) technology. Biotinylated oligonucleotide Direct Repeat 2 (DR2) is used for binding the receptors to Yttrium silicate streptavidin-coated SPA beads. […] Non-specific binding is determined in the presence of 10,000 nM of the unlabeled PPAR α/δ dual agonist reference compound for the alpha and delta receptor assays and the PPARγ agonist reference compound for the gamma receptor assay. The binding reaction (100 μl per well in a 96 well [Costar 3632] plate) is incubated for 10 h and counted disintegration per minutes (dpm) on a Wallac Microbeta. Receptor binding affinity (IC50) for the compounds is determined by fitting an 11 point concentration-response curve with a 4-parameter logistic equation. Ki, is determined from the IC50 using the Cheng-Prussoff equation and Kd determined by saturation binding. […]

T1 sequence (O14842 whole entry): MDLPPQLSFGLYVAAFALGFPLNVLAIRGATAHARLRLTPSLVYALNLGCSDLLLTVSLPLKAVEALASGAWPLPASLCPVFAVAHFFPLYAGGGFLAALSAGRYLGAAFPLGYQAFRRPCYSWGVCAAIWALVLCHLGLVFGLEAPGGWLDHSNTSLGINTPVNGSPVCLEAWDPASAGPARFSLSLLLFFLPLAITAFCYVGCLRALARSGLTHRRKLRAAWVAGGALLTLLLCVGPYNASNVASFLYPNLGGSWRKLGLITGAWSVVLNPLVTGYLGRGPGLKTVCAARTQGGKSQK

## CC#C[C@@H](CC(=O)O)c1ccc(OCc2ccc(CN3CCC4(C=Cc5ccccc54)CC3)cc2)cc1 [Example 1, (3S)-3-(4-{[4-(1′H-Spiro[indene-1,4′-piperidin]-1′-ylmethyl)benzyl]oxy}phenyl)hex-4-ynoic acid]
[1]
  increase in insulin secretion: two-fold increase
[2]; HEK293 cells over expressing human GPR40, FLIPR calcium
  EC50: 186 nM
[2]; maximal response compared to the natural ligand, linoleic acid
  efficacy: 91+/−10%
[3]
  binding detected: no binding is detected

— patent US8383642B2, “Spiropiperidine compounds” (Eli Lilly and Company, priority 2009, dated 2013)
